Measured values: patent publication US8552064B2, “Suramin and derivatives thereof as topical microbicide and contraceptive” (Eastern Virginia Medical School, priority 2005, dated 2013)
In brackets after ≈: the same amount, converted by molar mass. Read-outs that look alike come from different tables or passages of the source.

Columns and labels:
[1] = test system: Chlamydia trachomatis (serotype E/UW-5/CX); assay: Chlamydia multiplication inhibition; assay type: cell-based
Protocol: Chlamydia multiplication inhibition was performed according to Cooper M. D. et al., J. Gen. Microbiol., 136: 1109-1115 (1990). Prior to experimentation, cryo-preserved Chlamydia trachomatis (serotype E/UW-5/CX) were quickly thawed (37° C.) and suspended by mild sonication. Serial 1:10 dilutions of the bacterial suspension were made, ranging from 10^−1 to 10^−7.
HeLa monolayers (on coverslips) were inoculated with 100 μl of the different dilutions of chlamydia (elementary bodies), in the presence or absence of test agent. The suramin compound was tested at 0.1, 1.0, 10, 100 and 1000 μg/ml. After 1 hour, the monolayers were washed to remove free chlamydia and test agent, and they were incubated for 48 hours.
Medium was removed, and the HeLa monolayers were fixed in methanol, washed, and treated with Kallsted Chlamydia Culture Confirmation fluorescein-conjugated Monoclonal Antibody. Reaction of labeled antibody with the cells was carried out for 30 minutes at room temperature (i.e., 25° C.) (no light) in a humidified chamber. The cells were washed with water; a drop of mounting medium is placed on a glass slide, and the coverslip was applied. Inclusions due to chlamydial infection were visualized with a fluorescent microscope as green fluorescence. Data was reported as the number of inclusion forming units per ml of undiluted chlamydial titer, and were adjusted to control values of 2.6×10^7 IFU/ml for control cultures (no test agent) in each experiment. […] After logarithmic transformation of all data, dose-response curves were created with curve-fitting (TableCurve 2D, version 3.02; Jandel Scientific) software.

[2] = test system: murine cytomegalovirus (MCMV) binding to NIH3T3 fibroblasts; assay: Cytomegalovirus binding assay; assay type: cell-based
Protocol: In a cytomegalovirus binding assay, tritiated murine cytomegalovirus (MCMV) was incubated with NIH3T3 fibroblasts in a 24-well plate fixed (0.4% paraformaldehyde) for 2 hours at 37° C. (rocking) in the presence of media alone or media containing 1-1000 μg/mL suramin. Cells were then washed extensively and lysed with 1% SDS and triton X-100. Lysates were quantified for radioactivity (cpm) in a scintillation counter.

[3] = Pharmacokinetics in female rats, intravenous and intravaginal; assay type: in vivo, rat; settings: for Vd: read-out: Vdss
Protocol: Female rats (n=6) were administered with 30 mg of compound per kg in a single I.V. dose in saline or intravaginally, BID, for 5 days, formulated in KY jelly. The selected single dose represented 10 times the estimated human dose (250 mg). […] Following intravenous administration, relatively high concentrations of suramin sodium (mean value=563 μg/mL) were measured in plasma at 1 hour (first time-point) following the onset of dosing. […] The mean volume of distribution was calculated at 147 mL/kg.

[4] = test system: sperm penetration in cervical mucus; assay: Modified One End Test (MOET), sperm penetration in bovine cervical mucus; assay type: cell-based
Text: Bovine cervical mucus was obtained from Humagen (Charlottesville, Va.) in the form of prepackaged flat capillary tubes (Penetrak®), kept frozen and thawed right prior to the experiment. The Modified One End Test (MOET) [(described in Doncel G. F., in “Barrier Contraceptives”, Wiley-Liss, Mauck C. K. et al. eds., pp. 147-162 (1994)] was used to determine the effect of compounds, such as suramin sodium described herein, on sperm penetration in cervical mucus. Each of the test compositions containing the compound to be tested were diluted in a saline solution, i.e., at 9 grams of NaCl per liter of water. Tubes of cervical mucus were broken open. The open end was placed in a container containing the test compound in saline. The test compound was allowed to diffuse for 30 minutes through the tube. A semen sample, obtained from normal healthy donors, was then diluted with a buffer solution to 60 million motile sperm per milliliter and mixed with the test compound sample (i.e., suramin sodium). The tube containing the test compound sample was then re-inserted into the container containing the mixed solution and stored in an incubator at 37° C. in an atmosphere of 5 percent carbon dioxide in air for 60 minutes. The container and tube were then removed from the incubator and the tube was visually analyzed under a microscope for the migration of motile vanguard sperm through the tube. The results are expressed as percentage of migration as compared to control samples. In the control samples, the tubes were incubated with saline containing no compound. […]

HIV-1 IIIB = assay: Viral entry inhibition, cell-free HIV-1 IIIB, CD4/coreceptor expressing HeLa cells; assay type: cell-based; settings: Human immunodeficiency virus 1, IIIB
[5] = test system: human sperm, zona-free hamster eggs; assay: Hamster-egg penetration test (HEPT); assay type: cell-based
Protocol: The hamster-egg penetration test (HEPT) was used to predict the fertilizing ability of human sperm by evaluating the sperm's ooctye-penetration capability as described in Yanagimachi R. et al., Biol. Reprod., 15: 471-6 (1976). The zona pellucida of hamster eggs was dissolved by treatment with a protease, and human sperm were subsequently added to the zona free eggs. Sperm binding and penetration were assessed under a standard microscope (60× magnification) after placing the sperm-egg complexes onto polylysine-coated glass slides and covered them with 22×22 mm glass coverslips. The ability of the sperm to bind and enter the egg was scored by counting the sperm nuclei lying within the egg cytoplasm. The effect of the test compound was determined by comparing the number of sperm bound to the surface of the eggs and the percentage of penetrated eggs.

[6] = female, rat, plasma, IV: single dose 30 mg/kg
[7] = female, rat, plasma, IVag: 30 mg/kg BID for 5 days

Cc1ccc(C(=O)Nc2ccc(S(=O)(=O)O)c3cc(S(=O)(=O)O)cc(S(=O)(=O)O)c23)cc1NC(=O)c1cccc(NC(=O)Nc2cccc(C(=O)Nc3cc(C(=O)Nc4ccc(S(=O)(=O)O)c5cc(S(=O)(=O)O)cc(S(=O)(=O)O)c45)ccc3C)c2)c1 [Suramin, 8,8′-(carbonylbis(imino-3,1-phenylenecarbonylimino(4-methyl-3,1-phenylene)carbonylimino))bis-1,3,5-naphthalene trisulfonic acid]
Potency, Chlamydia (CT) Multiplication [1]: High | inhibition of CT multiplication ([1]; 2 mg/mL): inhibition was essentially complete | titer ([1]; 2 mg/mL, control titer 1×10^−5): 0.08×10^−5 | inhibition at 100 µg/mL ([1]; Chlamydia trachomatis, read-out: inhibition of CT multiplication): 75% | inhibition at 2000 µg/mL ([1]; Chlamydia trachomatis, 2 mg/mL, read-out: inhibition of CT multiplication): 100% | IC50 ([1]; Chlamydia trachomatis, read-out: IC50 Chlamydia (CT) Multiplication): 28 µg/mL (≈ 21.6 µM) | Potency, CMV Binding [2]: Moderate | IC50 ([2]; NIH3T3, read-out: IC50 CMV binding assay): 50 µg/mL (≈ 38.5 µM) | clinical signs ([3]; 30 mg/kg I.V. or intravaginally BID 5 days): No clinical signs were observed | t½ ([3]; IV: single dose 30 mg/kg, 30 mg/kg): 68.6 h | Kel ([3]; IV: single intravenous dose of 30 mg/kg, female rats, plasma): 0.0102 | t½ ([3]; IVag: 30 mg/kg BID for 5 days, listed as Suramin sodium): 132 h | Kel ([3]; IVag: intravaginal 30 mg/kg BID for 5 days in KY jelly): 0.005 | bioavailability after intravaginal administration ([3]; calculated from the total dose (90 mg) administered intravaginally): < 1% | histological lesions in vagina, lungs, liver and kidneys ([3]; female rats receiving the intravenous solution): No histological lesions were observed | AUC ([3]; female, rat, plasma, 30 mg/kg, IVag: 30 mg/kg BID for 5 days, zero to 144 hr post dose, read-out: AUC(tf)): 1170 µg·h/mL | AUC ([3]; female, rat, plasma, 30 mg/kg, IVag: 30 mg/kg BID for 5 days, zero to infinity, read-out: AUC(I)): 2280 µg·h/mL | half-life ([3]; female, rat, plasma, 30 mg/kg, intravaginal administration, read-out: mean half-life (converted)): ~132 h | bioavailability ([3]; female, rat, plasma, 90 mg, calculated from the total dose (90 mg) administered intravaginally, read-out: bioavailability after intravaginal administration): 0.8% | half-life ([3]; female, rat, plasma, iv, 30 mg/kg, IV: single dose 30 mg/kg, read-out: t½ (converted)): 68.5 h | AUC ([3]; female, rat, plasma, iv, 30 mg/kg, IV: single dose 30 mg/kg, zero to 144 hr post dose, read-out: AUC(tf)): 13900 µg·h/mL | AUC ([3]; female, rat, plasma, iv, 30 mg/kg, IV: single dose 30 mg/kg, zero to infinity, read-out: AUC(I)): 17300 µg·h/mL | clearance [3, 6]: 0.0292 mL/min | Vd [3, 6]: 0.147 L/kg | Cmax ([3]; female, rat, plasma, IV: single intravenous dose of 30 mg/kg, at 1 hour): 563 µg/mL | clearance [3, 7]: 0.0001 mL/min | Cmax ([3]; female, rat, plasma, IVag: 30 mg/kg BID for 5 days, at 3.5 hours following the last dose): 17.7 µg/mL | Vd [3, 7]: 0.132 L/kg | MOET % CTL ([4]; 6.25 mg/ml): 96.1 ± 0.9 % CTL | MOET % CTL ([4]; 12.5 mg/ml): 94.9 ± 2.2 % CTL | sperm impediment in MOET ([4]; 25 mg/mL or below): No significant sperm impediment | MOET % CTL ([4]; 25 mg/ml): 95.9 ± 1.4 % CTL | inhibition of sperm penetration in MOET ([4]; 50 mg/mL (5%)): only minor inhibition of sperm penetration | MOET % CTL ([4]; 50 mg/ml): 72.3 ± 7.1 % CTL | degree of inhibition of sperm penetration ([4]; KY, suramin sodium in KY and suramin sodium alone at the same concentration): ~4% | IC50 (HIV-1 IIIB; HeLa, 2 h-incubation, read-out: IC50 against IIIB, viral entry assay): 18.5 µg/mL (≈ 14.3 µM) | IC50 (HIV-1 IIIB; CD4/coreceptor expressing HeLa cells, incubation 2 hours, read-out: IC50, Cell-Free Strains IIIB): 18.5 µg/mL (≈ 14.3 µM) | Potency, Oolemma binding/Penetration (HEPT) [5]: High | inhibition of penetration [5]: 100% | inhibition of sperm binding to hamster zona-free oocytes [5]: 75% | sperm penetration/fertilization of zona-free eggs ([5]; n=28 oocytes): completely abolished sperm penetration/fertilization
